This note sets out measurements from patent publication US20200055817A1 (AbbVie Deutschland GmbH & Co. KG, priority 2016, published 2020).

The structures appear in SMILES notation. Where a name gives a salt, the structure may show the parent alone. Bounds are passed on as bounds.

What all share (format): cell-based
Assay [1] concerns the target T1, human EDG8 (S1PR5) receptor (Homo sapiens, UniProt Q9H228).
T1 construct: carries the transgenes human EDG8 (S1PR5) receptor (Acession number NP_110387.1); expressed in transfected cells; host or cells: CHO-A21-EDG8#12 (CHO clone co-expressing mitochondrial aequorin and chimaeric Gaqi5)
In words: Aequorin assay, agonist potency, CHO-A21-EDG8#12 cells. The conditions noted are these: agonist mode, aequorin luminescence; read-out: S1P5 EC50 range #. In a few lines:
(§1)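 CHO cells coexpressing receptor, mitochondrial aequorin and Gαqi5 (S1P3 pool: GNA16) were loaded overnight at RT with 5 μM coelenterazine h in 0.1% fatty-acid-free BSA buffer. Cells were injected onto compound, luminescence recorded 90 s and integrated, normalised to digitonin or 20 μM ATP; sigmoidal fit.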

Assay [2] has as its target T2, human EDG1 (S1PR1) receptor (Homo sapiens, UniProt P21453).
T2 construct: expressed in transfected cells; host or cells: CHO-A21-Edg1#17 (CHO clone co-expressing mitochondrial aequorin and chimaeric Gaqi5)
In words: Aequorin assay, agonist potency, CHO-A21-Edg1#17 cells. The conditions noted are these: agonist mode, aequorin luminescence; read-out: S1P1 EC50. The method in brief: as §1

For assay [3], the target named is T3, human EDG3 (S1PR3) receptor (Homo sapiens, UniProt Q99500).
T3 construct: expressed in transfected cells; host or cells: CHO-A2-S1P3 Mix (CHO cell pool co-expressing mitochondrial aequorin and GNA16)
T3 sequence (Q99500 whole entry): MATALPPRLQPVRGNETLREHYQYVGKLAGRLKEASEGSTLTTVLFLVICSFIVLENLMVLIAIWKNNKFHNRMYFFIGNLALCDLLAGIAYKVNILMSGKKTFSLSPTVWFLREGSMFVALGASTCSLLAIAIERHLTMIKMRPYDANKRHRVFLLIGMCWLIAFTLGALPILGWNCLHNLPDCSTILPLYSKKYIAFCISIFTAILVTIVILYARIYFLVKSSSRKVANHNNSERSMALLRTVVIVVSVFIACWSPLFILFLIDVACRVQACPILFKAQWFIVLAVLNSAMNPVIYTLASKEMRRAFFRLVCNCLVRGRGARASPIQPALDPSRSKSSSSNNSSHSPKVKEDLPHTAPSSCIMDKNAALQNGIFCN
In words: Aequorin assay, agonist potency, CHO-A2-S1P3 Mix cells. The conditions noted are these: agonist mode, aequorin luminescence. How it is done: Agonistic activity was measured as described below.
Cell clone CHO-A21-Edg1#17 carries the transgenes human EDG1 (S1PR1) receptor (Accession number NP_001391.2), mitochondrially targeted Aequorin (active part corresponds to accession number 1SL8_A) and chimaeric Gaqi5=Gaq modified with the 5 C-terminal amino-acids replaced with those of the Gai protein (DCGLF). CHO-A2-S1P3 Mix is a cell pool ectopically expressing human EDG3 (S1PR3) receptor (Accession number NP_005217.2) mitochondrially targeted Aequorin (active part has a sequence similar to accession number AY601106.1) and GNA16 (Accession number NP_002059.3). Cell clone CHO-A21-EDG8#12 carries the transgenes human EDG8 (S1PR5) receptor (Acession number NP_110387.1), mitochondrially expressed Aequorin (active part corresponds to accession number 1SL8_A) and chimaeric Gaqi5 (Gaq modified to present the 5 last amino-acids of the Gai protein “DCGLF”; see above). Cells are grown to mid-log phase in culture medium (HAM's F12, 10% FBS, 100 IU/mL penicillin, 100 μg/mL streptomycin, 250 μg/mL Zeocin, 400 μg/mL G418). 18 hours prior to frozen cells preparation, the medium is changed to remove the antibiotics.
18 hours prior to the test, vials of frozen cells are quickly thawed in a 37° C. water bath, cells are recovered by centrifugation and resuspended in assay buffer (DMEM/HAM's F12 with HEPES, without phenol red+0.1% fatty acid-free BSA). Cells are gently agitated in suspension overnight at RT in presence of 5 μM of Coelenterazine h (Molecular Probes). On the day of the test, cells are diluted to their final working concentrations in assay buffer and agitated in suspension for 1 h at RT. Cells are then placed in the luminescence reader (Hamamatsu Functional Drug Screening System 6000, FDSS6000). During cells incubation, compounds are prepared in 100% DMSO, and subsequently diluted in assay buffer. Compounds are then dispensed in the assay plate (black, clear-bottom, 384-well plate). After binding of agonists to the human S1P receptor the intracellular calcium concentration increases and binding of calcium to the Aequorin/Coelenterazine complex leads to an oxidation reaction of coelenterazine, which results in the production of Aequorin, coelenteramide, CO2 and light (Dmax 469 nm). The luminescent response is dependent on the agonist concentration. For agonist testing, 30 μL of cell suspension are injected on 30 μL of test compound or reference agonist in the assay plate. The resulting emission of light is recorded for 90 seconds using the FDSS6000. Dose response curves with the reference compounds are performed before testing the compounds. S1P is the reference agonist and JTE-013 the reference antagonist for S1P2.
Luminescence data are integrated over the reading interval for agonist and antagonist modes. To standardize the emission of recorded light (determination of the “100% signal”) across plates and across different experiments, some of the wells contain 100 μM digitonin or a saturating concentration of ATP (20 μM). Plates also contain the reference agonist at a concentration equivalent to the EC80 obtained during the test validation and the EC100. Dose-response data from test compounds were analyzed with XLfit (IDBS) software using nonlinear regression applied to a sigmoidal dose-response model and the following equation: […]

The target of assay [4] is T4, S1P4 (Homo sapiens, UniProt O95977).
T4 sequence (O95977 1-384): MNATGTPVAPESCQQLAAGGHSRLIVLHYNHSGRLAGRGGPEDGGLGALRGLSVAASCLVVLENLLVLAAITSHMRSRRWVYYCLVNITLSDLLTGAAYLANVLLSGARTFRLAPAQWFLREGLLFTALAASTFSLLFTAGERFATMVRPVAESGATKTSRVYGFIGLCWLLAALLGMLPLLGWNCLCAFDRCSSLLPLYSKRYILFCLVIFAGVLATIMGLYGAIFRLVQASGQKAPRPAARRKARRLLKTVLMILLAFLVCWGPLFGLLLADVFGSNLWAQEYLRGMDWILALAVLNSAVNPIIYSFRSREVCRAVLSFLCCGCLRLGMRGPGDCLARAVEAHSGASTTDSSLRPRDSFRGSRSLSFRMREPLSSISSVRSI
In words: Aequorin assay, agonist potency, S1P4. The conditions noted are these: agonist mode, aequorin luminescence. The method in brief: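 Aequorin luminescence read over 90 s after adding coelenterazine h–loaded cells (5 μM, overnight, RT) to test compound in phenol red-free DMEM/F12 buffer containing 0.1% fatty acid-free BSA. Responses integrated, scaled to the 100% signal from 100 μM digitonin or 20 μM ATP, and fitted to a sigmoidal dose-response model.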

T2 sequence (P21453 whole entry): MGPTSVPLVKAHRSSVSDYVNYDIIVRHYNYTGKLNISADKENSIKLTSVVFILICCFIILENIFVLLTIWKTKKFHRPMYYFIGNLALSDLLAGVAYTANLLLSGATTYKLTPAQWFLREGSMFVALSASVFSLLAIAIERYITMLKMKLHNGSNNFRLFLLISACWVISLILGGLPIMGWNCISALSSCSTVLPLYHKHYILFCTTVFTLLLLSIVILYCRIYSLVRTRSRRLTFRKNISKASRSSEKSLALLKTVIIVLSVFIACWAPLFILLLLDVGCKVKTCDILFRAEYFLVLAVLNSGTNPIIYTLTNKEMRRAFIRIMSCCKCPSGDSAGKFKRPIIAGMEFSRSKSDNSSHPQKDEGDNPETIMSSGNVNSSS
T1 sequence (Q9H228 whole entry): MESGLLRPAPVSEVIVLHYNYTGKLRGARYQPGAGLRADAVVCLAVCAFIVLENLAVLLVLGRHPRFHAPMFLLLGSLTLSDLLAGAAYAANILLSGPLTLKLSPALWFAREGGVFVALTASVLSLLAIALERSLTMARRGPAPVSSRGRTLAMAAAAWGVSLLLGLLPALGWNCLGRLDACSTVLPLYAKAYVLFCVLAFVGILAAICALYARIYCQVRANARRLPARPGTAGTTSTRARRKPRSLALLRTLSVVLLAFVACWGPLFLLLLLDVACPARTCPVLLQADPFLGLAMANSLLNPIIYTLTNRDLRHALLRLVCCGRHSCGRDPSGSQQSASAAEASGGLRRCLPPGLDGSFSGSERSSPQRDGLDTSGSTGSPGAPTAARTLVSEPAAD

One may read the EC50 as the concentration that produces a half-maximal response. In the case of `O=C(O)CN1CC2(Cc3ccc(OCc4c(Cl)cccc4Cl)cc3C2)C1` [Example 109, 2-(5′-((2,6-dichlorobenzyl)oxy)-1′,3′-dihydrospiro[azetidine-3,2′-inden]-1-yl)acetic acid], the concentration for a half-maximal effect (EC50) is no more than 10 nM in assay [1], greater than 1000 nM in assay [2], greater than 1000 nM in assay [3] and less than 1000 nM in assay [4].

On to `O=C(O)CN1CC2(Cc3ccc(OCc4ccccc4)cc3C2)C1` [Example 8, 2-(5′-(benzyloxy)-1′,3′-dihydrospiro[azetidine-3,2′-inden]-1-yl)acetic acid], for which the EC50 was 100 to 1000 nM in assay [1], greater than 1000 nM in assay [2], greater than 1000 nM in assay [3] and less than 1000 nM in assay [4].

For the compound `O=C(O)CCN1CC2(Cc3ccc(OCc4ccccc4)cc3C2)C1` [Example 6, 3-(5′-(benzyloxy)-1′,3′-dihydrospiro[azetidine-3,2′-inden]-1-yl)propanoic acid hydrochloride], the EC50 was 1000 to 10000 nM in assay [1], greater than 1000 nM in assay [2], greater than 1000 nM in assay [3] and less than 1000 nM in assay [4].

With `O=C(O)CN1CCC2(CC1)Cc1ccc(OCc3c(Cl)cccc3Cl)cc1C2` [Example 160, 2-(5-((2,6-dichlorobenzyl)oxy)-1,3-dihydrospiro[indene-2,4′-piperidin]-1′-yl)acetic acid], the concentration giving a half-maximal response (EC50) in assay [1] was no more than 10 nM; in assay [2] it was greater than 1000 nM; in assay [3] it was greater than 1000 nM; in assay [4] it was less than 1000 nM.

In the case of `O=C(O)CN1CC2(Cc3ccc(OCc4cc(Cl)ccc4Cl)cc3C2)C1` [Example 23, 2,2,2-trifluoroacetic acid compound with 2-(5′-((2,5-dichlorobenzyl)oxy)-1′,3′-dihydrospiro[azetidine-3,2′-inden]-1-yl)acetic acid (1:1)], the 50% effective concentration (EC50) in assay [1] was no more than 10 nM; in assay [2], greater than 1000 nM; in assay [3], greater than 1000 nM; in assay [4], less than 1000 nM.

In the case of `O=C(O)C1(CN2CC3(Cc4ccc(OCc5c(Cl)cccc5C5CC5)cc4C3)C2)CC1` [Example 44, 1-((5′-((2-chloro-6-cyclopropylbenzyl)oxy)-1′,3′-dihydrospiro[azetidine-3,2′-inden]-1-yl)methyl)cyclopropanecarboxylic acid compound with acetic acid (1:1)], the concentration for a half-maximal effect (EC50) in assay [1] was no more than 10 nM; in assay [2] it was greater than 1000 nM; in assay [3], greater than 1000 nM; in assay [4] it was less than 1000 nM.

Regarding `Cc1cccc(C)c1COc1ccc2c(c1)CC1(C2)CN(CC2(C(=O)O)CC2)C1` [Example 39, 1-((5′-((2,6-dimethylbenzyl)oxy)-1′,3′-dihydrospiro[azetidine-3,2′-inden]-1-yl)methyl)cyclopropanecarboxylic acid compound with 2,2,2-trifluoroacetic acid (1:1)], the EC50 in assay [1] was no more than 10 nM; in assay [2], greater than 1000 nM; in assay [3], greater than 1000 nM; in assay [4], less than 1000 nM.

`CCc1cccc(Cl)c1COc1ccc2c(c1)CC1(CCN(CC(=O)O)CC1)C2` [Example 161, 2-(5-((2-chloro-6-ethylbenzyl)oxy)-1,3-dihydrospiro[indene-2,4′-piperidin]-1′-yl)acetic acid hydrochloride]: the EC50 in assay [1] is no more than 10 nM; in assay [2] it was greater than 1000 nM; in assay [3], greater than 1000 nM; in assay [4], less than 1000 nM.

As for `CCc1cccc(F)c1COc1ccc2c(c1)CC1(CCN(CC(=O)O)CC1)C2` [Example 159, 2-(5-((2-ethyl-6-fluorobenzyl)oxy)-1,3-dihydrospiro[indene-2,4′-piperidin]-1′-yl)acetic acid hydrochloride], the 50% effective concentration (EC50) in assay [1] is no more than 10 nM; in assay [2] it was greater than 1000 nM; in assay [3] it was greater than 1000 nM; in assay [4], less than 1000 nM.

With `O=C(O)C1(CN2CC3(Cc4ccc(-c5ccc(OCc6cccc(F)c6)cc5)cc4C3)C2)CC1` [Example 50, 1-((5′-(4-((3-fluorobenzyl)oxy)phenyl)-1′,3′-dihydrospiro[azetidine-3,2′-inden]-1-yl)methyl)cyclopropanecarboxylic acid], the concentration for a half-maximal effect (EC50) is no more than 10 nM in assay [1], greater than 1000 nM in assay [2], greater than 1000 nM in assay [3] and less than 1000 nM in assay [4].

As for `O=C(O)C1(CN2CC3(Cc4ccc(OCCc5c(Cl)cccc5Cl)cc4C3)C2)CC1` [Example 59, 1-((5′-(2,6-dichlorophenethoxy)-1′,3′-dihydrospiro[azetidine-3,2′-inden]-1-yl)methyl)cyclopropanecarboxylic acid], the EC50 is no more than 10 nM in assay [1], greater than 1000 nM in assay [2], greater than 1000 nM in assay [3] and less than 1000 nM in assay [4].

On to `CCc1cccc(Cl)c1COc1ccc2c(c1)CC1(C2)CN(CC2(C(=O)O)CC2)C1` [Example 28, 1-((5′-((2-chloro-6-ethylbenzyl)oxy)-1′,3′-dihydrospiro[azetidine-3,2′-inden]-1-yl)methyl)cyclopropanecarboxylic acid], for which the EC50 in assay [1] was no more than 10 nM; in assay [2], greater than 1000 nM; in assay [3], greater than 1000 nM; in assay [4], less than 1000 nM.

In the case of `CCc1cccc(Cl)c1COc1ccc2c(c1)CC1(C2)CN(CCC(=O)O)C1` [Example 7, 3-(5′-((2-chloro-6-ethylbenzyl)oxy)-1′,3′-dihydrospiro[azetidine-3,2′-inden]-1-yl)propanoic acid hydrochloride], the 50% effective concentration (EC50) in assay [1] is no more than 10 nM; in assay [2], greater than 1000 nM; in assay [3], greater than 1000 nM; in assay [4], less than 1000 nM.

In the case of `O=C(O)C1(CN2CC3(Cc4ccc(-c5ccc(OCC6CCCCC6)cc5)cc4C3)C2)CC1` [Example 51, 1-((5′-(4-(cyclohexylmethoxy)phenyl)-1′,3′-dihydrospiro[azetidine-3,2′-inden]-1-yl)methyl)cyclopropanecarboxylic acid], the EC50 in assay [1] is 10 to 100 nM; in assay [2], greater than 1000 nM; in assay [3], greater than 1000 nM; in assay [4], greater than 1000 nM.

In the case of `O=C(O)C1(CN2CC3(Cc4ccc(-c5ccc(OCc6cccc(Cl)c6)cc5)cc4C3)C2)CC1` [Example 52, 1-((5′-(4-((3-chlorobenzyl)oxy)phenyl)-1′,3′-dihydrospiro[azetidine-3,2′-inden]-1-yl)methyl)cyclopropanecarboxylic acid], the 50% effective concentration (EC50) in assay [1] was 10 to 100 nM; in assay [2] it was greater than 1000 nM; in assay [3] it was greater than 1000 nM; in assay [4], less than 1000 nM.
